This note sets out measurements from patent publication US10821079B2, “PKC activators and combinations thereof” (Cognitive Research Enterprises, Inc., priority 2011, dated 2020).

In test [1] the test system is SH-SY5Y neuroblastoma cells. The test can be described thus: Neuronal and synaptic marker expression in cells treated with RA and Bryostatin-1 (immunofluorescence, immunoblot). The test is classed as cell-based, human. How it is done: Human SH-SY5Y neuroblastoma cells (ATCC) were cultured in 45% F12K, 45% minimum Eagle's medium, 10% fetal calf serum. […] For differentiation of SH-SY5Y cells were maintained at 2% serum and treated with 10 μM RA for 72 hr. […] Medium was changed every 3 days with fresh supplementation of RA. Rat hippocampal neurons from 18-day-old embryonic Sprague-Dawley rat brains were plated on 24-well plates coated with poly-D-lysine (Sigma-Aldrich) in neurobasal medium supplemented with B-27 containing 0.5 mM glutamine and 25 μM glutamate (Invitrogen). The neuronal cells were grown under 5% CO2 for 14 days in an incubator maintained at 37° C.
Cells were harvested in homogenizing buffer containing 10 mM Tris-Cl (pH 7.4), 1 mM PMSF (phenylmethylsulfonyl fluoride), 1 mM EGTA, 1 mM EDTA, 50 mM NaF, and 20 μM leupeptin and were lysed by sonication. […] Protein concentration was measured using the Coomassie Plus (Bradford) Protein Assay kit (Pierce, USA). Following quantification, 20 μg of protein from each sample was subjected to SDS-PAGE analysis in 4-20% gradient Tris-Glycine gel (Invitrogen, USA). […] Western Blot was imaged in the ImageQuant RT-ECL (GE Life Sciences, Piscataway, N.J.) and densitometric quantification was performed using the IMAL software (Blanchette Rockefeller Neurosciences Institute, Morgantown, W. Va.). […]

Test [2] concerns PKC-ε. Kind of test: PKC-ε mRNA by RT-PCR in RA / Bryostatin-1 treated cells. The class given is cell-based, human. Here is the method: RNA was isolated from the cells using Trizol reagent (Invitrogen, USA) following the manufacturer's protocol. Briefly, 5 μg of total RNA was reverse transcribed using oligo (dT) and Superscript III (Invitrogen, USA) at 50° C. for 1 hr. Two μl of the cDNA product was amplified using primers for PKC-ε (Forward Primer—[…], Reverse primer—[…]), and β-tubulin (Forward Primer—[…], Reverse primer—[…]) (Origene, Rockville, Md.) for 25 cycles following standard PCR protocols and 55° C. annealing temperature. The PCR amplicons were analyzed in an E-Gel (Invitrogen, USA). The gel image was documented using a Fuji Image gel scanner (FLA-9000, Fuji Film) and densitometric quantification was performed using the IMAL software (Blanchette Rockefeller Neurosciences Institute, Morgantown, W. Va.). Data were represented as normalized ratio of PKC-ε OD (Optical Density) against β-tubulin OD for three independent experiments.

Regarding `CCC/C=C/C=C/C(=O)O[C@H]1/C(=C/C(=O)OC)C[C@H]2C[C@H]([C@@H](C)O)OC(=O)C[C@H](O)C[C@@H]3C[C@H](OC(C)=O)C(C)(C)C(O)(C[C@@H]4C/C(=C/C(=O)OC)C[C@H](/C=C/C(C)(C)[C@]1(O)O2)O4)O3` [Bryostatin-1], the “increase of synaptophysin expression (immunoblot)” value in test [1] (alone, 72 hr) turned out to be 50%. The “increase of mRNA level of PKC-ε” value in test [2] was 2 fold.

On to `CC1=C(/C=C/C(C)=C/C=C/C(C)=C/C(=O)O)C(C)(C)CCC1` [RA, All-trans retinoic acid], for which, in test [1] (RA only), the “change in synaptophysin or PSD-95 (in words)” value is given as “did not show much change”. Besides, in test [2], the “increase of mRNA level of PKC-ε” value stood at 2 fold.
